# In ChEMBL document CHEMBL1649170, “Functional characterization of the sigmaB-dependent yabJ-spoVG operon in Staphylococcus aureus: role in methicillin and glycopeptide resistance” (2009):
# Key:
# Format in all cases: functional
# [1] = tested on: Staphylococcus aureus; experiment: Antimicrobial activity against methicillin- and tetracycline resistant Staphylococcus aureus COL by broth microdilution method
# [2] = tested on: Staphylococcus aureus; experiment: Antimicrobial activity against erythromycin-resistant, tetracycline-sensitive and yabJ-spoVG operon deficient Staphylococcus aureus COL mutant by broth microdilution method
# [3] = tested on: Staphylococcus aureus; experiment: Antimicrobial activity against erythromycin-resistant and rsbUVW-sigB operon deficient Staphylococcus aureus COL by broth microdilution method
# [4] = tested on: Staphylococcus aureus; experiment: Antimicrobial activity against erythromycin-resistant, tetracycline-sensitive and rsbUVW-sigB operon deficient Staphylococcus aureus COL mutant by broth microdilution method
# [5] = tested on: Staphylococcus aureus; experiment: Antimicrobial activity against methicillin-resistant and tetracycline-sensitive Staphylococcus aureus COL mutant by broth microdilution method
# [6] = tested on: Staphylococcus aureus; experiment: Antimicrobial activity against erythromycin-, tetracycline resistant and yabJ-spoVG operon deficient Staphylococcus aureus COL by broth microdilution method
smiles,measurement,setting,value
Cc1onc(-c2ccccc2)c1C(=O)N[C@@H]1C(=O)N2[C@@H]1SC(C)(C)[C@@H]2C(=O)O [OXACILLIN],MIC,[1],> 256 µg/mL
same,MIC,[2],> 256 µg/mL
same,MIC,[3],256 µg/mL
same,MIC,[4],> 256 µg/mL
same,MIC,[5],> 256 µg/mL
same,MIC,[6],128 µg/mL
